Measured values as given in patent US6307080A, “Water-soluble zinc pyruvates or their hydrates, method for the product ion thereof and their use” (SKW Trostberg Aktiengesellschaft, priority 1998, dated 2001).

Columns and labels:
[1] = test system: influenza A/Chile/1/83 or influenza B/Singapore/27/79 (viral hemagglutination of erythrocytes); experiment: Inhibition of influenza-induced viral hemagglutination (vHAI) of erythrocytes (RBC); type: cell-based, influenza A and influenza B viruses; settings: Table 1; for IC50: read-out: HAI IC50
[2] = test system: influenza A/Chile/1/83 or influenza B/Singapore/27/79 in MDCK cells; type: cell-based, influenza A and influenza B viruses; settings: Table 1; for Plaque (plaque reduction assay): concentration in plaque reduction assay, MDCK cells, 30 min treatment; for Plaque Reduction: percentage reduction in number of plaque per unit volume (well), 30 min
Solubility = type: physicochemical; settings: product of Berzelius's instructions, identified as zinc parapyruvate
type II diabetics = settings: cited from earlier work
macrophages [3] = experiment: Binding/association of zinc pyruvate to macrophages (equilibrium dialysis)
macrophages [4] = experiment: Inhibition of superoxide (HO2) release from activated macrophages (cytochrome C reduction); type: cell-based; settings: in words

Row | Compound | Potency HAI [1] | IC50 [1] | Plaque (plaque reduction assay) [2] | Plaque Reduction [2] | further results
1 | CC(=O)[O-].CC(=O)[O-].[Zn+2] [Zn(Ac)2] | 6.0 | 150 µM | 1700 µM | 15% | 
2 | [Cl-].[Cl-].[Zn+2] [ZnCl2] | 5.0 | 100 µM | 1200 µM | 20% | 
3 | O.[O]=[Zn] [ZnO.H2 O] | 4.5 |  | 1700 µM | 15% | 
4 | [O]=[Zn] [ZnO.H2 O] |  | ~200 µM |  |  | 
5 | CC(O)(CC(=O)C(=O)[O-])C(=O)[O-].[Zn+2] (centres unmarked) [zinc parapyruvate] |  |  |  |  | solubility (Solubility): sparingly soluble
6 | [Zn] [zinc] |  |  |  |  | average fasting blood sugar (type II diabetics; after administration of zinc for 6 weeks, decrease from 250, Perger and coworkers): 142 mg %; fasting and postprandial blood sugar level (type II diabetics; other studies, zinc administration): decreases markedly
7 | zinc pyruvate | 19.9 | 25.3 µM | 90.5 µM | 67% | binding constant (macrophages [3]; macrophages, cell count of 10^5, read-out: binding constant determined by equilibrium dialysis): 150 nM; association constant of zinc pyruvate to the macrophages (macrophages [3]; under these in-vitro conditions): 150 nM; lysis of RBC cells begins at (erythrocytes (RBC)): 1000 µg/mL; inhibitory effect on the release of HO2 (respiratory burst activity) (macrophages [4]): regulatory and in part inhibitory effect
